Test results published in patent publication US12599136B2, “Substituted isophthalic acid diamides and their use as herbicides” (Bayer Aktiengesellschaft, priority 2020, dated 2026).

Assays:
Format in all cases: in vivo
Abutilon theophrasti [1] = experiment: Pre-emergence herbicidal action against ABUTH; conditions: visual score after 3 weeks vs untreated controls
Procedure, shortened: (§1)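 Seeds sown in sandy loam, soil-covered; compound sprayed on soil surface pre-emergence. Application: WP/EC, 600–800 l/ha, 0.2% wetting agent. Readout: visual % damage at 3 weeks.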

Pharbitis purpurea [2] = experiment: Pre-emergence herbicidal action against PHBPU; conditions: 320 g/ha; visual score after 3 weeks vs untreated controls
Procedure, shortened: as §1

Lolium rigidum = experiment: Pre-emergence herbicidal action against LOLRI; conditions: 320 g/ha
Procedure, shortened: as §1

Avena fatua [3] = experiment: Post-emergence herbicidal action against AVEFA; conditions: visual assessment about 3 weeks after treatment
Procedure, shortened: (§2)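 Sandy loam, greenhouse; treatment 2–3 weeks after sowing, one-leaf stage. Aqueous suspension or emulsion from WP/EC sprayed on foliage (600–800 l/ha, 0.2% wetting agent). Readout: visual % action, ~3 weeks.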

Abutilon theophrasti [4] = experiment: Post-emergence herbicidal action against ABUTH
Procedure, shortened: as §2

Setaria viridis [5] = experiment: Post-emergence herbicidal action against SETVI; conditions: visual assessment about 3 weeks after treatment
Procedure, shortened: as §2

Polygonum convolvulus = experiment: Post-emergence herbicidal action against POLCO; conditions: 80 g/ha, visual assessment about 3 weeks after treatment
Experimental: (§3) Seeds of monocotyledonous and dicotyledonous weed and crop plants are laid out in sandy loam soil in wood-fiber pots, covered with soil and cultivated in a greenhouse under good growth conditions. 2 to 3 weeks after sowing, the test plants are treated at the one-leaf stage. The compounds of the invention, formulated in the form of wettable powders (WP) or as emulsion concentrates (EC), are then sprayed onto the green parts of the plants in the form of an aqueous suspension or emulsion at a water application rate equivalent to 600 to 800 l/ha, with addition of 0.2% wetting agent. After the test plants have been left to stand in the greenhouse under optimal growth conditions for about 3 weeks, the action of the preparations is assessed visually in comparison to untreated controls (herbicidal action in percent (%): 100% activity=the plants have died, 0% activity=like control plants). […] The tables below illustrate, in an illustrative manner, the post-emergence herbicidal action of the compounds of the invention, the herbicidal activity being stated in percent.

Stellaria media [6] = experiment: Pre-emergence herbicidal action against STEME
Procedure, shortened: as §1

Veronica persica [7] = experiment: Pre-emergence herbicidal action against VERPE; conditions: 320 g/ha
Procedure, shortened: as §1

Alopecurus myosuroides [8] = experiment: Pre-emergence herbicidal action against ALOMY; conditions: visual score after 3 weeks vs untreated controls
Procedure, shortened: as §1

Amaranthus retroflexus [9] = experiment: Pre-emergence herbicidal action against AMARE; conditions: visual score after 3 weeks vs untreated controls
Procedure, shortened: as §1

Stellaria media [10] = experiment: Post-emergence herbicidal action against STEME; conditions: visual assessment about 3 weeks after treatment
Procedure, shortened: as §2

Matricaria inodora [11] = experiment: Post-emergence herbicidal action against MATIN; conditions: visual assessment about 3 weeks after treatment
Procedure, shortened: as §2

Matricaria inodora [12] = experiment: Pre-emergence herbicidal action against MATIN; conditions: visual score after 3 weeks vs untreated controls
Procedure, shortened: as §1

Setaria viridis [13] = experiment: Pre-emergence herbicidal action against SETVI
Procedure, shortened: as §1

Echinochloa crus-galli [14] = experiment: Pre-emergence herbicidal action against ECHCG; conditions: visual score after 3 weeks vs untreated controls
Procedure, shortened: as §1

Pharbitis purpurea [15] = experiment: Post-emergence herbicidal action against PHBPU; conditions: visual assessment about 3 weeks after treatment
Procedure, shortened: as §2

Hordeum murinum [16] = experiment: Pre-emergence herbicidal action against HORMU; conditions: 320 g/ha; visual score after 3 weeks vs untreated controls
Source text: Seeds of monocotyledonous and dicotyledonous weed plants and crop plants are laid out in sandy loam soil in wood-fiber pots and covered with soil. The compounds of the invention, formulated in the form of wettable powders (WP) or as emulsion concentrates (EC), are then applied to the surface of the covering soil in the form of an aqueous suspension or emulsion at a water application rate equivalent to 600 to 800 l/ha, with addition of 0.2% wetting agent. After the treatment, the pots are placed in a greenhouse and kept under good growth conditions for the trial plants. The damage to the test plants is scored visually after a test period of 3 weeks by comparison with untreated controls (herbicidal activity in percent (%): 100% activity=the plants have died, 0% activity=like control plants). […] The tables below illustrate, in an illustrative manner, the post-emergence herbicidal action of the compounds of the invention, the herbicidal activity being stated in percent.

Cyperus esculentus [17] = experiment: Post-emergence herbicidal action against CYPES; conditions: 80 g/ha, visual assessment about 3 weeks after treatment
Experimental: as §3

Viola tricolor [18] = experiment: Pre-emergence herbicidal action against VIOTR
Procedure, shortened: as §1

Echinochloa crus-galli [19] = experiment: Post-emergence herbicidal action against ECHCG; conditions: visual assessment about 3 weeks after treatment
Procedure, shortened: as §2

Viola tricolor [20] = experiment: Post-emergence herbicidal action against VIOTR
Procedure, shortened: as §2

Avena fatua [21] = experiment: Pre-emergence herbicidal action against AVEFA; conditions: 320 g/ha; visual score after 3 weeks vs untreated controls
Procedure, shortened: as §1

Amaranthus retroflexus [22] = experiment: Post-emergence herbicidal action against AMARE; conditions: visual assessment about 3 weeks after treatment
Procedure, shortened: as §2

Alopecurus myosuroides [23] = experiment: Post-emergence herbicidal action against ALOMY
Procedure, shortened: as §2

Cyperus esculentus [24] = experiment: Pre-emergence herbicidal action against CYPES; conditions: visual score after 3 weeks vs untreated controls
Procedure, shortened: as §1

Veronica persica [25] = experiment: Post-emergence herbicidal action against VERPE; conditions: 80 g/ha, visual assessment about 3 weeks after treatment
Procedure, shortened: as §2

Hordeum murinum [26] = experiment: Post-emergence herbicidal action against HORMU
Experimental: as §3

## CCCn1nnnc1NC(=O)c1ccc(C(F)(F)F)c(C(=O)N(C)CC)c1Cl [Example 3-124]
Abutilon theophrasti [1]; 20 g/ha
  Pre-emergence action against ABUTH: 100%
Abutilon theophrasti [1]; 80 g/ha
  Pre-emergence action against ABUTH: 100%
Abutilon theophrasti [1]; Dosage column 320 g/ha (heading prints 3200 g/ha)
  Pre-emergence action against ABUTH: 100%
Pharbitis purpurea [2]
  Pre-emergence action against PHBPU: 90%
Lolium rigidum
  Pre-emergence action against LOLRI: 80%
Avena fatua [3]; 20 g/ha
  Post-emergence action against AVEFA in %: 80%
Avena fatua [3]; 80 g/ha
  Post-emergence action against AVEFA in %: 100%
Abutilon theophrasti [4]; 5 g/ha
  Post-emergence action against ABUTH: 100%
Abutilon theophrasti [4]; 20 g/ha
  Post-emergence action against ABUTH: 100%
Abutilon theophrasti [4]; 80 g/ha
  Post-emergence action against ABUTH: 100%
Setaria viridis [5]; 5 g/ha
  Post-emergence action against SETVI in %: 90%
Setaria viridis [5]; 20 g/ha
  Post-emergence action against SETVI in %: 90%
Setaria viridis [5]; 80 g/ha
  Post-emergence action against SETVI in %: 100%
Polygonum convolvulus
  Post-emergence action against POLCO in %: 80%
Stellaria media [6]; 20 g/ha
  Pre-emergence action against STEME: 90%
Stellaria media [6]; 80 g/ha
  Pre-emergence action against STEME: 100%
Stellaria media [6]; 320 g/ha
  Pre-emergence action against STEME: 100%
Veronica persica [7]
  Pre-emergence action against VERPE: 90%
Alopecurus myosuroides [8]; 80 g/ha
  Pre-emergence action against ALOMY: 80%
Alopecurus myosuroides [8]; 320 g/ha
  Pre-emergence action against ALOMY: 90%
Amaranthus retroflexus [9]; 20 g/ha
  Pre-emergence action against AMARE: 90%
Amaranthus retroflexus [9]; 80 g/ha
  Pre-emergence action against AMARE: 100%
Amaranthus retroflexus [9]; 320 g/ha
  Pre-emergence action against AMARE: 100%
Stellaria media [10]; 5 g/ha
  Post-emergence action against STEME in %: 90%
Stellaria media [10]; 20 g/ha
  Post-emergence action against STEME in %: 100%
Stellaria media [10]; 80 g/ha
  Post-emergence action against STEME in %: 100%
Matricaria inodora [11]; 5 g/ha
  Post-emergence action against MATIN in %: 90%
Matricaria inodora [11]; 20 g/ha
  Post-emergence action against MATIN in %: 100%
Matricaria inodora [11]; 80 g/ha
  Post-emergence action against MATIN in %: 100%
Matricaria inodora [12]; 20 g/ha
  Pre-emergence action against MATIN: 80%
Matricaria inodora [12]; 80 g/ha
  Pre-emergence action against MATIN: 90%
Matricaria inodora [12]; 320 g/ha
  Pre-emergence action against MATIN: 90%
Setaria viridis [13]; 80 g/ha
  Pre-emergence action against SETVI: 90%
Setaria viridis [13]; 320 g/ha
  Pre-emergence action against SETVI: 100%
Echinochloa crus-galli [14]; 80 g/ha
  Pre-emergence action against ECHCG: 80%
Echinochloa crus-galli [14]; 320 g/ha
  Pre-emergence action against ECHCG: 100%
Pharbitis purpurea [15]; 5 g/ha
  Post-emergence action against PHBPU in %: 90%
Pharbitis purpurea [15]; 20 g/ha
  Post-emergence action against PHBPU in %: 90%
Pharbitis purpurea [15]; 80 g/ha
  Post-emergence action against PHBPU in %: 100%
Hordeum murinum [16]
  Pre-emergence action against HORMU: 80%
Cyperus esculentus [17]
  Post-emergence action against CYPES in %: 80%
Viola tricolor [18]; 80 g/ha
  Pre-emergence action against VIOTR: 80%
Viola tricolor [18]; 320 g/ha
  Pre-emergence action against VIOTR: 100%
Echinochloa crus-galli [19]; 5 g/ha
  Post-emergence action against ECHCG in %: 90%
Echinochloa crus-galli [19]; 20 g/ha
  Post-emergence action against ECHCG in %: 100%
Echinochloa crus-galli [19]; 80 g/ha
  Post-emergence action against ECHCG in %: 100%
Viola tricolor [20]; 5 g/ha
  Post-emergence action against VIOTR in %: 100%
Viola tricolor [20]; 20 g/ha
  Post-emergence action against VIOTR in %: 100%
Viola tricolor [20]; 80 g/ha
  Post-emergence action against VIOTR in %: 100%
Avena fatua [21]
  Pre-emergence action against AVEFA: 100%
Amaranthus retroflexus [22]; 5 g/ha
  Post-emergence action against AMARE in %: 100%
Amaranthus retroflexus [22]; 20 g/ha
  Post-emergence action against AMARE in %: 100%
Amaranthus retroflexus [22]; 80 g/ha
  Post-emergence action against AMARE in %: 100%
Alopecurus myosuroides [23]; 20 g/ha
  Post-emergence action against ALOMY: 80%
Alopecurus myosuroides [23]; 80 g/ha
  Post-emergence action against ALOMY: 100%
Cyperus esculentus [24]; 80 g/ha
  Pre-emergence action against CYPES: 80%
Cyperus esculentus [24]; 320 g/ha
  Pre-emergence action against CYPES: 90%
Veronica persica [25]
  Post-emergence action against VERPE in %: 80%
Hordeum murinum [26]; 20 g/ha
  Post-emergence action against HORMU in %: 80%
Hordeum murinum [26]; 80 g/ha
  Post-emergence action against HORMU in %: 80%
